≈ marks a conversion by molar mass, not a printed value. Where two headings read alike, the source gives them in different places.

The source of these data is patent US9795137B2, “Metalaxyl and prothioconazole cocrystals and methods of making and using” (Bayer CropScience LP, priority 2012, dated 2017).

The conditions of data set [1]: water solubility measurements at pH 7.0 in an aspect, cited from earlier work.
Data set [2] is described as follows: Water solubility of saturated solutions at pH 7.0, measured by HPLC. Conditions: metalaxyl and prothioconazole as separate compounds (0.2 g each in one bottle), 10 mL pH 7.0 buffer, stirred about 12 hours at 20° C.±1° C.
Experimental: A saturated solution of metalaxyl and prothioconazole as separate compounds was prepared by the following procedure: 0.2 grams each of metalaxyl and prothioconazole were weighed and placed into a 0.5 oz bottle. 10 mL of pH 7.0 (Fisher #SB107-500) was added to the bottle. A magnetic stir bar was added to the bottle and the bottle was capped and shaken. The bottle was placed on a magnetic stirrer for about 12 hours at a temperature of 20° C.±1° C. stirring on low.
10 mL of pH 7.0 (Fisher #SB107-500) was added to the bottle. A magnetic stir bar was added to the bottle and the bottle was capped and shaken. The bottle was placed on a magnetic stirrer for about 12 hours in a room at 20° C.±1° C., stirring on low.

On to `COCC(=O)N(c1c(C)cccc1C)C(C)C(=O)OC` (racemic) [metalaxyl, N-(2,6-dimethylphenyl)-N-(methoxyacetyl)-DL-alanine methyl ester], for which, in data set [1] (at 22° C.), the water solubility entry is “about 8.4 g/l”. Besides, the “solubility at pH 7.0” value in data set [2] amounted to 0.62%.
Take `OC(Cc1ccccc1Cl)(Cn1nc[nH]c1=S)C1(Cl)CC1` (stereo not shown) [prothioconazole, 2-[2-(1-chlorocyclopropyl)-3-(2-chlorophenyl)-2-hydroxypropyl]-1,2-dihydro-3H-1,2,4-triazole-3-thione]: the water solubility in data set [1] (at 25° C.) is 0.61 µg/mL (≈ 1.77 µM). Moreover, the “solubility at pH 7.0” value in data set [2] was 0.0002%.
